Measurements reported in ChEMBL document CHEMBL5634153, “Design, synthesis and preclinical evaluation of muscarine receptor antagonists via a scaffold-hopping approach” (Eur J Med Chem, 2023).
Calls of active or inactive are those of the source. No cut-off for these calls is given here.

Key:
[1] = Lipophilicity, log P of compound at pH 7.4 by HPLC analysis; assay type: physicochemical; conditions: buffer
[2] = Cytotoxicity against CHO-K1 cells expressing human muscarinic receptor M1 incubated for 72 hrs by MTT assay; assay type: toxicity, cell-based; conditions: Chinese hamster (Cricetulus griseus)
[3] = target: T1, Muscarinic acetylcholine receptor M1 (Homo sapiens, UniProt P11229); test: Displacement of [3H]NMS from human muscarinic M1 receptor expressed in CHO-K1 cell membrane assessed as inhibition constant incubated for 90 mins by competitive radioligand binding assay; assay type: cell membranes
T1 sequence (P11229 whole entry): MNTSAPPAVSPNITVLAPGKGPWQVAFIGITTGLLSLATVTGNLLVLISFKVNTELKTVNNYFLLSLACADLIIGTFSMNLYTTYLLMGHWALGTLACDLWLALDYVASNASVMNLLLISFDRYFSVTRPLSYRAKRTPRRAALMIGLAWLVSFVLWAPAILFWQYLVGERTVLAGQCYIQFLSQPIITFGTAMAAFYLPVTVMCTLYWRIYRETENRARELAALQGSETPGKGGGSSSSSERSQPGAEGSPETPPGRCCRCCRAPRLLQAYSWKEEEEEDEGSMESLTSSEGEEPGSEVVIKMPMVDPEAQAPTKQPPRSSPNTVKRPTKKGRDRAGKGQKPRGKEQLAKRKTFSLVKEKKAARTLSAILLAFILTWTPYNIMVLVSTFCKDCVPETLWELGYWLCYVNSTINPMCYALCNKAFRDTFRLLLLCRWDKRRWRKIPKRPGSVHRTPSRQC

[4] = target: T2, Muscarinic acetylcholine receptor M2 (Homo sapiens, UniProt P08172); test: Displacement of [3H]NMS from human muscarinic M2 receptor expressed in CHO-K1 cell membrane assessed as inhibition constant incubated for 90 mins by competitive radioligand binding assay; assay type: cell membranes
T2 sequence (P08172 whole entry): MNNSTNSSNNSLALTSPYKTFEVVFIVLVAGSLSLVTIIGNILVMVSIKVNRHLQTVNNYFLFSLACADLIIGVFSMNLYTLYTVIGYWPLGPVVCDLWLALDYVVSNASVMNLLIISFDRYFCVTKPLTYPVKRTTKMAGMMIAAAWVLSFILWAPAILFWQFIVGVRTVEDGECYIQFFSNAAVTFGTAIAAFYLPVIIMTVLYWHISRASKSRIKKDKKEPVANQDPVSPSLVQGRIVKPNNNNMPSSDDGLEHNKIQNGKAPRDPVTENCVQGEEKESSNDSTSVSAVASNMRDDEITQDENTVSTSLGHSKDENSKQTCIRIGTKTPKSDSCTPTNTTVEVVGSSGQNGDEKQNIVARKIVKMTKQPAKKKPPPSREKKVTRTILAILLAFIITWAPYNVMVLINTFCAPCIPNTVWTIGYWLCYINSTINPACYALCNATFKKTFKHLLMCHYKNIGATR

[5] = target: Muscarinic acetylcholine receptor M3 (Homo sapiens, UniProt P20309); test: Displacement of [3H]NMS from human muscarinic M3 receptor expressed in CHO-K1 cell membrane assessed as inhibition constant incubated for 90 mins by competitive radioligand binding assay; assay type: cell membranes
[6] = target: T3, Muscarinic acetylcholine receptor M4 (Homo sapiens, UniProt P08173); test: Displacement of [3H]NMS from human muscarinic M4 receptor expressed in CHO-K1 cell membrane assessed as inhibition constant incubated for 90 mins by competitive radioligand binding assay; assay type: cell membranes
T3 sequence (P08173 whole entry): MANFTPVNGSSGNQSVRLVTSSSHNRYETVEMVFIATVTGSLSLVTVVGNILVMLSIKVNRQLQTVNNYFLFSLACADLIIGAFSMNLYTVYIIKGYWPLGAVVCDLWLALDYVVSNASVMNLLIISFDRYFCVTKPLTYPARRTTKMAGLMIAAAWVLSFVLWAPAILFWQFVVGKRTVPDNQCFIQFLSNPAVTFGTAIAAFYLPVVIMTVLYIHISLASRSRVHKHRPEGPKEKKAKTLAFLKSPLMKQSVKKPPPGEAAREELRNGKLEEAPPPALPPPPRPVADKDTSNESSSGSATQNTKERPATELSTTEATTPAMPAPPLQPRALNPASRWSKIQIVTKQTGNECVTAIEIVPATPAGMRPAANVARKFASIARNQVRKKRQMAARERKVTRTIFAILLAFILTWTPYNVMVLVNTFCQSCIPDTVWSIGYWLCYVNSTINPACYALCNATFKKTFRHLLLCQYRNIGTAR

[7] = target: T4, Muscarinic acetylcholine receptor M5 (Homo sapiens, UniProt P08912); test: Displacement of [3H]NMS from human muscarinic M5 receptor expressed in CHO-K1 cell membrane assessed as inhibition constant incubated for 90 mins by competitive radioligand binding assay; assay type: cell membranes
T4 sequence (P08912 whole entry): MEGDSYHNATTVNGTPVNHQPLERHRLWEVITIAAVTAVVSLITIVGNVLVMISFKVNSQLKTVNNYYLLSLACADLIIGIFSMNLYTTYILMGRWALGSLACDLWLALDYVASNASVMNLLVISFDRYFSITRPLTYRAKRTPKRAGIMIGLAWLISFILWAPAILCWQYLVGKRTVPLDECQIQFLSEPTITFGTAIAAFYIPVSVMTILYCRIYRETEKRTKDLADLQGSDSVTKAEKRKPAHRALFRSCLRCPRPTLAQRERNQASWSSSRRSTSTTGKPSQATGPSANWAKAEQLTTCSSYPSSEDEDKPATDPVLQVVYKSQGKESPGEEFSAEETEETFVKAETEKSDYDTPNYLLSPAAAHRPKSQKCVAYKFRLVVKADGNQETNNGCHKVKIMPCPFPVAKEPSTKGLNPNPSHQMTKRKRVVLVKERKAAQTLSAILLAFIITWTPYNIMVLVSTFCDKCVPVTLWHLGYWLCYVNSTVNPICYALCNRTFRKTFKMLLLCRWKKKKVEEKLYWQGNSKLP

[8] = target: T5, Muscarinic acetylcholine receptor M1 (Homo sapiens) (UniProt P11229); test: Antagonist activity at human muscarinic M1 receptor expressed in CHO-K1 cell membrane assessed as reduction in carbachol-induced ca2+ influx by fluorescence based assay; assay type: functional, cell membranes; conditions: filed as antagonist
T5 sequence (whole entry): T1 sequence (P11229 whole entry)

[9] = target: T5, Muscarinic acetylcholine receptor M1 (Homo sapiens); test: Agonist activity at human muscarinic M1 receptor expressed in CHO-K1 cell membrane upto 100 uM by fluorescence based assay; assay type: functional, cell membranes
Homo sapiens [10] = species on record: Homo sapiens; test: Selectivity ratio of Ki for human muscarinic M1 receptor expressed in CHO-K1 cells to Ki for human muscarinic M5 receptor expressed in CHO-K1 cells; assay type: cell-based
Homo sapiens [11] = species on record: Homo sapiens; test: Selectivity ratio of Ki for human muscarinic M3 receptor expressed in CHO-K1 cells to Ki for human muscarinic M5 receptor expressed in CHO-K1 cells; assay type: cell-based
Homo sapiens [12] = species on record: Homo sapiens; test: Selectivity ratio of Ki for human muscarinic M4 receptor expressed in CHO-K1 cells to Ki for human muscarinic M5 receptor expressed in CHO-K1 cells; assay type: cell-based
[13] = target: Muscarinic acetylcholine receptor M2 and M5 (Homo sapiens) (UniProt P08172+P08912); test: Selectivity ratio of Ki for human muscarinic M2 receptor expressed in CHO-K1 cells to Ki for human muscarinic M5 receptor expressed in CHO-K1 cells; assay type: cell-based
[14] = target: Muscarinic acetylcholine receptor M1 and M3 (Homo sapiens) (UniProt P20309+P11229); test: Selectivity ratio of Ki for human muscarinic M1 receptor expressed in CHO-K1 cells to Ki for human muscarinic M3 receptor expressed in CHO-K1 cells; assay type: cell-based
[15] = target: Muscarinic acetylcholine receptors; M2 & M3 (Homo sapiens) (UniProt P20309+P08172); test: Selectivity ratio of Ki for human muscarinic M2 receptor expressed in CHO-K1 cells to Ki for human muscarinic M3 receptor expressed in CHO-K1 cells; assay type: cell-based
Homo sapiens [16] = species on record: Homo sapiens; test: Selectivity ratio of Ki for human muscarinic M4 receptor expressed in CHO-K1 cells to Ki for human muscarinic M3 receptor expressed in CHO-K1 cells; assay type: cell-based
Homo sapiens [17] = species on record: Homo sapiens; test: Selectivity ratio of Ki for human muscarinic M5 receptor expressed in CHO-K1 cells to Ki for human muscarinic M3 receptor expressed in CHO-K1 cells; assay type: cell-based

Sequence of Muscarinic acetylcholine receptor M3 (P20309 whole entry): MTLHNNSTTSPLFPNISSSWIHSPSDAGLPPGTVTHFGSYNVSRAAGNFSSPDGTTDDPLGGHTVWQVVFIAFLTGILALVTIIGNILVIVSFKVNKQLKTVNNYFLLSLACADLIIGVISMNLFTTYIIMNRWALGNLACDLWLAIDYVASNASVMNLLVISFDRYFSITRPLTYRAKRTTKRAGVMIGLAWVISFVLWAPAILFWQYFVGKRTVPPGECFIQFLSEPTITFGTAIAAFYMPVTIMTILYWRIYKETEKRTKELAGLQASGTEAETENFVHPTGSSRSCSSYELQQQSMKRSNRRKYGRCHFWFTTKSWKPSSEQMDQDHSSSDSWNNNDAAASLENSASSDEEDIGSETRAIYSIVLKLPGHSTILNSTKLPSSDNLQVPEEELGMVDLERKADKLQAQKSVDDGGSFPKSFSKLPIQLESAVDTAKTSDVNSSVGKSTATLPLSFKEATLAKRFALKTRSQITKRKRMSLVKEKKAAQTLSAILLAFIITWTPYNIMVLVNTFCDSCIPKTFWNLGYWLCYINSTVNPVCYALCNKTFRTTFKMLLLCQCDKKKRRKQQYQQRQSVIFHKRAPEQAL
Sequence of Muscarinic acetylcholine receptor M1 and M3 (Homo sapiens) (P20309 whole entry, looked up, one chain of several): as the sequence (P20309 whole entry) above
Sequence of Muscarinic acetylcholine receptors; M2 & M3 (Homo sapiens) (P20309 whole entry, looked up, one chain of several): as the sequence (P20309 whole entry) above

logP [1] | Ki [3] | Ki [4] | Ki [5] | Ki [6] | Ki [7] | Activity [8] | Activity [9] | SMILES | IC50 at 72 h [2] | Ratio Ki (Homo sapiens [10]) | Ratio Ki (Homo sapiens [11]) | Ratio Ki (Homo sapiens [12]) | Ratio Ki [13] | Ratio Ki [14] | Ratio Ki [15] | Ratio Ki (Homo sapiens [16]) | Ratio Ki (Homo sapiens [17])
2.94 | 20 nM | 108 nM | 21 nM | 32 nM | 18 nM | Dose-Dependent Effect | inactive | CN1CCC(Oc2nc3ccccc3n2-c2ccccc2)CC1 | ≥ 100000 nM | – | – | – | – | – | – | – | –
1.91 | 217 nM | > 1000 nM | 123 nM | 156 nM | 105 nM | Dose-Dependent Effect | inactive | CN1CCC(OC(=O)N(c2ccccc2)c2ccccc2)C1 (centres undefined) | ≥ 100000 nM | – | – | – | – | – | – | – | –
2.11 | 255 nM | > 1000 nM | 121 nM | 158 nM | 255 nM | Dose-Dependent Effect | inactive | CN1CCC(OC(=O)N(c2ccccc2)c2ccccc2)CC1 | ≥ 100000 nM | – | – | – | – | – | – | – | –
1.82 | > 1000 nM | > 1000 nM | 339 nM | 244 nM | > 1000 nM | – | – | CN1CC(OC(=O)N(c2ccccc2)c2ccccc2)C1 | ≥ 100000 nM | – | – | – | – | – | – | – | –
2.81 | 51 nM | 258 nM | 60 nM | 65 nM | 14 nM | Dose-Dependent Effect | inactive | CN1CCC(Oc2nc3ccccc3n2-c2ccccc2)C1 (racemic) | ≥ 100000 nM | 4 | 4 | 4 | 18 | – | – | – | –
3.2 | 288 nM | 385 nM | 236 nM | 152 nM | 77 nM | – | – | CN1CCCC(Oc2nc3ccccc3n2-c2ccccc2)C1 (racemic) | ≥ 100000 nM | – | – | – | – | – | – | – | –
– | – | > 1000 nM | > 1000 nM | > 1000 nM | – | – | – | CN1CCN(Cc2nc3cccnc3n2-c2ccccc2C(=O)O)CC1 | – | – | – | – | – | – | – | – | –
2.6 | > 1000 nM | > 1000 nM | > 1000 nM | > 1000 nM | > 1000 nM | – | – | CN1CC(Oc2nc3ccccc3n2-c2ccccc2)C1 | ≥ 100000 nM | – | – | – | – | – | – | – | –
2.69 | > 1000 nM | > 1000 nM | > 1000 nM | > 1000 nM | > 1000 nM | – | – | CN1CCCC(OC(=O)N(c2ccccc2)c2ccccc2)C1 (centres undefined) | ≥ 100000 nM | – | – | – | – | – | – | – | –
1.58 | > 1000 nM | > 1000 nM | > 1000 nM | > 1000 nM | > 1000 nM | Dose-Dependent Effect | inactive | CN1[C@@H]2C[C@@H]3C[C@H]1C(O3)C2OC(=O)N(c1ccccc1)c1ccccc1 (some centres undefined) | ≥ 100000 nM | – | – | – | – | – | – | – | –

SMILES | logP [1] | Ki [3] | Ki [4] | Ki [5] | Ki [6] | Ki [7] | Activity [8] | Activity [9] | IC50 at 72 h [2] | Ratio Ki (Homo sapiens [10]) | Ratio Ki (Homo sapiens [11]) | Ratio Ki (Homo sapiens [12]) | Ratio Ki [13] | Ratio Ki [14] | Ratio Ki [15] | Ratio Ki (Homo sapiens [16]) | Ratio Ki (Homo sapiens [17])
CN1[C@@H]2C[C@@H](Oc3nc4ccccc4n3-c3ccccc3)C[C@H]1[C@@H]1O[C@@H]12 | 3.04 | 285 nM | > 1000 nM | 350 nM | 189 nM | 164 nM | – | – | ≥ 100000 nM | – | – | – | – | – | – | – | –
CN1[C@@H]2CC[C@H]1C[C@@H](OC(=O)N(c1ccccc1)c1ccccc1)C2 | 2.69 | > 1000 nM | > 1000 nM | > 1000 nM | > 1000 nM | > 1000 nM | – | – | ≥ 100000 nM | – | – | – | – | – | – | – | –
c1ccc(-n2c(O[C@H]3CN4CCC3CC4)nc3ccccc32)cc1 | 1.2 | 16 nM | 70 nM | 3.7 nM | 9.4 nM | 2.6 nM | – | – | ≥ 100000 nM | 1.4 | 1.4 | 1.4 | 1.4 | – | – | – | –
CN1[C@@H]2CC[C@H]1C[C@H](Oc1nc3ccccc3n1-c1ccccc1)C2 | 3.05 | 9 nM | 16 nM | 17 nM | 11 nM | 8.1 nM | Dose-Dependent Effect | inactive | ≥ 100000 nM | – | – | – | – | – | – | – | –
CN1[C@@H]2CC[C@H]1C[C@H](OC(=O)N(c1ccccc1)c1ccccc1)C2 | 1.58 | 44 nM | 222 nM | 108 nM | 50 nM | 75 nM | Dose-Dependent Effect | inactive | ≥ 100000 nM | – | – | – | – | – | – | – | –
CN1[C@@H]2CC[C@H]1C[C@@H](Oc1nc3ccccc3n1-c1ccccc1)C2 | 2.73 | 101 nM | 442 nM | 46 nM | 201 nM | > 1000 nM | – | – | ≥ 100000 nM | – | – | – | – | 2.5 | 2.5 | 2.5 | 2.5
